From patent US20260374766A1, “METHODS FOR TREATING CANCER” (Antares Therapeutics, Inc., priority 2022, published 2026)

Experiments:
[1] = target: p53 Y220C (Homo sapiens, UniProt P04637, Y220C); experiment: Luciferase Reporter Assay (Luc), p53 response element, NClH1299 cells with inducible p53 Y220C; type: cell-based; settings: luciferase reporter, NClH1299 inducible p53 Y220C, 6 hour; for AC50: read-out: Luc P53 Y220C AC50
In short: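 Doxycycline (0.5 ug/mL, 24 h) induces the mutant before a 6-hour compound treatment. Reporter activity is then quantified by One-Glo luminescence.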

[2] = system: H1299 p53 R273H; experiment: Cell Proliferation Assay (CellTiter-Glo, CTG), H1299 p53 R273H (NClH1299-inducible p53 R273H); type: cell-based; settings: Homo sapiens, NCI-H1299, 120 h, NClH1299-inducible p53 R273H cells, 5 days, CellTiter-Glo
In short: (§1)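 NClH1299 lines stably transduced with Tet-inducible p53 Y220C or R273H, plus NUGC3, were treated with compound for 5 days at 250-500 cells/well. IC50 derived from CellTiter-Glo luminescent signal after 10 min room-temperature incubation.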

[3] = system: NUGC3 p53 Y220C; experiment: Cell Proliferation Assay (CellTiter-Glo, CTG), NUGC3 p53 Y220C; type: cell-based; settings: Homo sapiens, NUGC-3, 120 h, NUGC3 cells, 5 days, CellTiter-Glo
In short: as §1

[4] = target: T1, p53 Y220C mutant protein (amino acid residues 94-293) (Homo sapiens, UniProt P04637, Y220C); experiment: Surface Plasmon Resonance (SPR) assay, Kd_kinetic; type: binding; settings: SPR; p53 Y220C; read-out: SPR P53 Y220C KD kinetic
T1 construct: p53 Y220C mutant protein (amino acid residues 94-293)
T1 sequence (P04637 94-293, stated change not applied): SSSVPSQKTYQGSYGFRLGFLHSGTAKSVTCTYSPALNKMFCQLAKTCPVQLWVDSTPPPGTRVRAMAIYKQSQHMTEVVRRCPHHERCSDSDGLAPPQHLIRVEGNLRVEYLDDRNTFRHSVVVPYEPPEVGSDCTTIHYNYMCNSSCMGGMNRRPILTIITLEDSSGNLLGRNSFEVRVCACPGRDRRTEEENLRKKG
In short: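 Temperature held at 16 or 20 °C during Biacore 8K runs. Buffer: 50 mM Tris, pH 7.5, 100 mM NaCl, 1 mM DTT, 0.01% Brij35, 0.05% Tween-20, 1% DMSO.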

[5] = system: H1299 p53 Y220C; experiment: Cell Proliferation Assay (CellTiter-Glo, CTG), H1299 p53 Y220C (NClH1299-inducible p53 Y220C); type: cell-based; settings: Homo sapiens, NCI-H1299, 120 h, NClH1299-inducible p53 Y220C cells, 5 days, CellTiter-Glo
In short: as §1

SMILES | AC50 [1] | Emax [1] | IC50 [2] | IC50 [3] | Kd [4] | IC50 [5]
COc1cc([S@+](C)[O-])ccc1NCC#Cc1cc2c(N[C@@H]3CCN(C)C[C@@H]3F)cccn2c1SC(F)(F)F [Example 411] | < 750 nM | > 90% | ≥ 10000 nM | < 750 nM | < 10 nM | < 750 nM
C[C@@H](O)CNC(=O)c1ccc(NCC#Cc2cc3c(N[C@@H]4CCN(C)C[C@@H]4F)cccn3c2SC(F)(F)F)cc1 [Example 414] | < 750 nM | > 90% | ≥ 10000 nM | < 750 nM | < 10 nM | < 750 nM
COc1cc(P(C)(C)=O)ccc1NCC#Cc1cn2c(N[C@@H]3CCN(C)C[C@@H]3F)cccc2c1SC(F)F [Example 415] | < 750 nM | 80 to 90% | ≥ 10000 nM | 750 to 1500 nM | < 10 nM | 750 to 1500 nM
COc1cc(C(=O)NC[C@@H](C)O)ccc1NCC#Cc1cc2c(N[C@@H]3CCN(C)C[C@@H]3F)cccn2c1SC(F)(F)F [Example 416, 4-{[3-(8-{[(3S,4R)-3-fluoro-1-methylpiperidin-4-yl]amino}-3-[(trifluoromethyl)sulfanyl]indolizin-2-yl)prop-2-yn-1-yl]amino}-N-[(2R)-2-hydroxypropyl]-3-methoxybenzamide] | < 750 nM | 80 to 90% | 5000 to 8000 nM | < 750 nM | < 10 nM | < 750 nM
COc1ccc(C(=O)NCC2(O)CC2)cc1NCC#Cc1cc2c(N[C@@H]3CCN(C)C[C@@H]3F)cccn2c1SC(F)(F)F [Example 417] | < 750 nM | > 90% | ≥ 10000 nM | < 750 nM | < 10 nM | < 750 nM
CN1CC[C@@H](Nc2cccn3c(SC(F)(F)F)c(C#CCNc4ccc(S(C)(=O)=O)cc4)cc23)[C@@H](F)C1 [Example 418] | < 750 nM | > 90% | ≥ 10000 nM | < 750 nM | < 10 nM | < 750 nM
COc1cc(C(=O)NCC2(O)CC2)ccc1NCC#Cc1cc2c(N[C@@H]3CCN(C)C[C@@H]3F)cccn2c1SC(F)(F)F [Example 419, 4-{[3-(8-{[(3S,4R)-3-fluoro-1-methylpiperidin-4-yl]amino}-3-[(trifluoromethyl)sulfanyl]indolizin-2-yl)prop-2-yn-1-yl]amino}-N-[(1-hydroxycyclopropyl)methyl]-3-methoxybenzamide] | < 750 nM | > 90% | 5000 to 8000 nM | < 750 nM | < 10 nM | < 750 nM
CN1CC[C@@H](Nc2cccn3c(SC(F)(F)F)c(C#CCNc4ccc(P(C)(C)=O)nc4)cc23)[C@@H](F)C1 [Example 420, 2-(3-{[6-(dimethylphosphoryl)pyridin-3-yl]amino}prop-1-yn-1-yl)-N-[(3S,4R)-3-fluoro-1-methylpiperidin-4-yl]-3-[(trifluoromethyl)sulfanyl]indolizin-8-amine] | < 750 nM | 80 to 90% | ≥ 10000 nM | < 750 nM | < 10 nM | < 750 nM
COc1cc(C(=O)NC[C@@H](O)CO)ccc1NCC#Cc1cc2c(N[C@@H]3CCN(C)C[C@@H]3F)cccn2c1SC(F)(F)F [Example 421] | < 750 nM | > 90% | ≥ 10000 nM | < 750 nM | < 10 nM | < 750 nM
COc1cc(C(=O)NC[C@H](O)CO)ccc1NCC#Cc1cc2c(N[C@@H]3CCN(C)C[C@@H]3F)cccn2c1SC(F)(F)F [Example 422] | < 750 nM | > 90% | ≥ 10000 nM | < 750 nM | < 10 nM | < 750 nM
COc1cc([S@@+](C)[O-])ccc1NCC#Cc1cc2c(N[C@@H]3CCN(C)C[C@@H]3F)cccn2c1SC(F)(F)F [Example 423] | < 750 nM | > 90% | 8000 to 10000 nM | < 750 nM | < 10 nM | < 750 nM
COc1ccc(C(=O)NCC(C)(C)O)cc1NCC#Cc1cc2c(N[C@@H]3CCN(C)C[C@@H]3F)cccn2c1SC(F)(F)F [Example 424] | < 750 nM | > 90% | ≥ 10000 nM | < 750 nM | < 10 nM | < 750 nM
CN1CC[C@@H](Nc2cccn3c(SC(F)(F)F)c(C#CCNc4ccc(C(=O)N[C@H]5C[C@H](O)C5)cc4)cc23)[C@@H](F)C1 [Example 426] | < 750 nM | > 90% | 8000 to 10000 nM | < 750 nM | < 10 nM | < 750 nM
